Several values for one entry are separate records, joined by “and”; a condition that tells them apart may be missing. Equal values may be shown once. Read-outs that look alike come from different tables or passages of the source.
Legend:
S. Typhimurium ATCC14028 = assay: Static peg assay for prevention of biofilm formation (Calgary device, crystal violet); format: cell-based, Salmonella Typhimurium; details: 25° C.
Method in brief: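 Calgary 96-peg device, ca. 10^6 cells of ATCC14028 per well in TSB 1/20 for 24 h at 25° C (or 48 h at 16° C, medium and compound renewed at 24 h), or in CFA broth for 24 h at 37° C, static, with two-fold compound dilutions. Crystal violet stain, acetic acid extraction, OD570. IC50 from 2–3 independent experiments.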

[1] = test system: Pseudomonas aeruginosa PA14; assay: as above; format: cell-based
Method in brief: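 P. aeruginosa PA14 overnight TSB culture diluted 1:100 into broth with two-fold compound dilutions, biofilms grown 24 h static on polystyrene pegs of a Calgary device at 25 °C (TSB 1/20), 30 °C or 37 °C (CFA and/or LBNS). Biofilm quantified by crystal violet, extracted with 30% acetic acid, A570.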

[2] = Table 11, read-out: IC50 (biofilm formation)
[3] = Table 14, read-out: IC50 biofilm inhibition
[4] = Table 18, read-out: S. Typhimurium IC50 (biofilm formation)
[5] = 25° C., Table 12, read-out: IC50 (biofilm formation)
[6] = 25° C., Table 14, read-out: IC50 biofilm inhibition
[7] = 25° C., Table 18, read-out: P. aeruginosa IC50 (biofilm formation)
[8] = 37° C., read-out: IC50 (biofilm formation)

Row | SMILES | IC50 (S. Typhimurium ATCC14028; [2]) [µM] | IC50 (S. Typhimurium ATCC14028; [3]) [µM] | IC50 (S. Typhimurium ATCC14028; [4]) [µM] | IC50 [1, 5] [µM] | IC50 [1, 6] [µM] | IC50 [1, 7] [µM] | IC50 [1, 8] [µM] | further results
1 | CCCCCCN1c2nccc[n+]2CC1(O)c1ccc([N+](=O)[O-])cc1.[Br-] (stereo not shown) [Compound 34] | 46.8 | 46.8 | – | – | – | – | – | IC50 (S. Typhimurium ATCC14028; 24 hours, Table 15, read-out: (1) IC50 (biofilm inhibition)): 54.7 µM; IC50 (S. Typhimurium ATCC14028; Table 16, read-out: S. Typhimurium IC50 (biofilm formation)): 54.7 µM; IC50 ([1]; 25° C., 24 hours, Table 15, read-out: (2) IC50 (biofilm inhibition)): 10.9 µM; IC50 ([1]; 25° C., Table 16, read-out: P. aeruginosa IC50 (biofilm formation)): 12.4 µM
2 | OC1(c2ccc(Cl)cc2)C[n+]2cccnc2N1C1CCCCC1.[Br-] (stereo not shown) [Compound 64] | – | – | 33 | 4.94 | 4.94 | 10 | – | IC50 (S. Typhimurium ATCC14028; Table 11, listed as R1=cyclohexyl, R3=4-Cl—Ph, R4=H, read-out: IC50 (biofilm formation)): 43.8 µM and 35.6 µM; IC50 (S. Typhimurium ATCC14028; Table 14, listed as R1=Cyclohexyl, R3=4-ClPh, R4=H, read-out: IC50 biofilm inhibition): 43.8 µM and 35.6 µM
3 | OC1(c2ccc(I)cc2)C[n+]2cccnc2N1Cc1ccccc1.[Br-] (stereo not shown) [Compound 73] | – | – | – | 8.61 | 8.61 | – | 175 | IC50 (S. Typhimurium ATCC14028; Table 11, listed as R1=Bn, R3=4-I—Ph, R4=H, read-out: IC50 (biofilm formation)): 30.7 µM and 26.9 µM; IC50 (S. Typhimurium ATCC14028; Table 14, listed as R1=Bn, R3=4-IPh, R4=H, read-out: IC50 biofilm inhibition): 26.9 µM; IC50 (S. Typhimurium ATCC14028; Table 14, listed as R1=Bn, R3=4-Iph, R4=H, read-out: IC50 biofilm inhibition): 30.7 µM; IC50 (S. Typhimurium ATCC14028; Table 19, read-out: IC50 (biofilm formation)): 36.7 µM
4 | O=[N+]([O-])c1ccc(C2(O)C[n+]3cccnc3N2C2CCCCCCCCCCC2)cc1.[Br-] (stereo not shown) [Compound 69] | < 6.25 | < 6.25 | < 6.3 | 6.32 | 6.32 | 6.9 | 18.2 | –
5 | OC1(c2ccc(-c3ccccc3)cc2)C[n+]2cccnc2N1C1CCCC1.[Br-] (stereo not shown) [R1=Cyclopentyl, R3=4-biphenylyl, R4=H, 1-cyclopentyl-2-hydroxy-2-(4-biphenylyl)-2,3-dihydro-1H-imidazo[1,2-a]pyrimidin-4-ium bromide] | – | – | – | – | – | – | – | IC50 (S. Typhimurium ATCC14028; Salmonella enterica, Table 11, read-out: IC50 (biofilm formation)): 14.9 µM; IC50 (S. Typhimurium ATCC14028; Salmonella enterica, Table 14, read-out: IC50 biofilm inhibition): 14.9 µM; IC50 ([1]; Pseudomonas aeruginosa, PA14, 25° C., Table 12, read-out: IC50 (biofilm formation)): 1.57 µM; IC50 ([1]; Pseudomonas aeruginosa, PA14, 25° C., Table 14, read-out: IC50 biofilm inhibition): 1.57 µM; IC50 ([1]; Pseudomonas aeruginosa, PA14, 37° C., read-out: IC50 (biofilm formation)): 62.1 µM

Source: US20130029981A1, “COMPOUNDS, COMPOSITIONS, AND METHODS FOR CONTROLLING BIOFILMS” (Katholieke Universiteit Leuven, priority 2009, published 2013)
